Like-named read-outs stand apart in the source and are kept apart here.
Experiments:
[1] = tested on: K103N/Y181C (HIV-1 double mutant strain); assay: EC50 assay, K103N/Y181C strain; assay type: cell-based
Source text: (§1) Reverse TranscriptASE (RT) Assays
(§2) The assays are as described in WO 01/96338A1, the contents of which are hereby incorporated herein. The results are listed in Tables 8 as IC50(nM) and EC50(nM).

[2] = tested on: WT RT (HIV-1 wild type strain); assay: EC50 assay, WT RT strain; assay type: cell-based
Source text: as §1, §2

WT RT (HIV-1 RT) = target: T1, WT RT (HIV-1 RT) (Human immunodeficiency virus type 1 group M subtype B, UniProt P03366); assay: biochemical
T1 construct: mutations that occur in the reverse transcriptase segment of the pol gene
Source text: (§3) Based upon testing of these compounds, as described below, it is known that they inhibit the RNA-dependent DNA polymerase activity of HIV-1 RT. […] Utilising the Reverse Transcriptase (RT) Assay described below, compounds can be tested for their ability to inhibit the RNA-dependent DNA polymerase activity of HIV-1 RT. Certain specific compounds described in the Examples which appear below, were so tested. The results of this testing appear in Table 4 as IC50 (nM) and Table 5 as EC50 (nM).
as §1, §2

[3] = target: T2, Y188L mutant RT (HIV-1 RT) (Human immunodeficiency virus type 1 group M subtype B, UniProt P03366, Y787L); assay: biochemical
T2 construct: mutations that occur in the reverse transcriptase segment of the pol gene
Source text: as §3, §1, §2

[4] = target: T3, K103N/Y181C double mutant RT (HIV-1 RT) (Human immunodeficiency virus type 1 group M subtype B, UniProt P03366, K702N/Y780C); assay: biochemical
T3 construct: mutations that occur in the reverse transcriptase segment of the pol gene
Source text: as §3, §1, §2

[5] = target: T4, V106A mutant RT (HIV-1 RT) (Human immunodeficiency virus type 1 group M subtype B, UniProt P03366, V705A); assay: biochemical
T4 construct: mutations that occur in the reverse transcriptase segment of the pol gene
Source text: as §3, §1, §2

[6] = Human immunodeficiency virus 1, read-out: EC50 K103N/Y181C (nM), K103N/Y181C double mutant
[7] = Human immunodeficiency virus 1, read-out: EC50 WT RT (nM)
[8] = wild type RT, read-out: IC50 WT RT
[9] = K103N/Y181C double mutant RT, read-out: IC50 K103N/Y181C
[10] = K103N/Y181C double mutant, read-out: EC50 K103N/Y181C
[11] = wild type, read-out: EC50 WT RT
[12] = read-out: IC50 WT RT, wild type RT
[13] = read-out: IC50 K103N/Y181C, K103N/Y181C double mutant RT

| SMILES | EC50 [1, 6] | EC50 [2, 7] | IC50 (WT RT (HIV-1 RT)) | IC50 ([3]; IC50 Y188L (nM)) | IC50 [4] | IC50 ([5]; IC50 V106A (nM)) | also measured |
| --- | --- | --- | --- | --- | --- | --- | --- |
| CCN1c2ncc(CCOc3ccc(C(=O)O)c4ccccc34)cc2C(=O)N(C)c2cccnc21 [Entry 1001] | < 100 nM | < 100 nM |  |  |  |  |  |
| CCN1c2ncc(CCOc3ccc(C(=O)O)c4ccccc34)cc2C(=O)N(C)c2ccc(Cl)nc21 [Entry 1002] | < 100 nM | < 100 nM | < 0.1 µM | 100 to 1000 nM | < 0.1 µM | 100 to 1000 nM |  |
| CCN1c2ncc(CCOc3ccc(C(=O)O)c4ccccc34)cc2C(=O)N(C)c2ccc(F)nc21 [Entry 1006] | < 100 nM | < 100 nM | < 0.1 µM | > 1000 nM | 0.1 to 1 µM | > 1000 nM |  |
| CCN1c2ncc(CCOc3ccc(C(=O)O)c4ccccc34)cc2C(=O)Nc2c(C)cc(Cl)nc21 [Entry 1007] | < 100 nM | < 100 nM | < 0.1 µM | > 1000 nM | 0.1 to 1 µM | 100 to 1000 nM |  |
| CCN1c2ncc(CCOc3ccc(CC(=O)O)c4ccccc34)cc2C(=O)N(C)c2cccnc21 [Entry 1008] |  |  |  |  |  |  | IC50 (WT RT (HIV-1 RT); [8]): < 0.1 µM; IC50 ([3]; read-out: IC50 Y188L): > 1000 nM; IC50 [4, 9]: 0.1 to 1 µM; IC50 ([5]; read-out: IC50 V106A): > 1000 nM; EC50 [1, 10]: < 100 nM; EC50 [2, 11]: < 100 nM |
| CCN1c2ncc(CCOc3ccc(CC(=O)O)c4ccccc34)cc2C(=O)N(C)c2ccc(F)nc21 [Entry 1009] | < 100 nM | < 100 nM | < 0.1 µM | > 1000 nM | 0.1 to 1 µM | > 1000 nM |  |
| CCN1c2ncc(CCOc3ccc(CC(=O)O)c4ccccc34)cc2C(=O)N(C)c2ccc(Cl)nc21 [Entry 1010] | < 100 nM | < 100 nM | < 0.1 µM | > 1000 nM | 0.1 to 1 µM | > 1000 nM |  |
| CCN1c2ncc(CCOc3ccc(CC(=O)O)c4ccccc34)cc2C(=O)Nc2c(C)cc(Cl)nc21 [Entry 1012] | 100 to 1000 nM | < 100 nM | < 0.1 µM | > 1000 nM | 0.1 to 1 µM | 100 to 1000 nM |  |
| CCN1c2ncc(CCOc3ccc(CC(=O)NN)c4ccccc34)cc2C(=O)N(C)c2cccnc21 [Entry 1015] | < 100 nM | < 100 nM | < 0.1 µM | 100 to 1000 nM | < 0.1 µM | 100 to 1000 nM |  |
| CCN1c2ncc(CCOc3ccc(CC(=O)NN)c4ccccc34)cc2C(=O)N(C)c2ccc(Cl)nc21 [Entry 1016] | < 100 nM | < 100 nM | < 0.1 µM | 100 to 1000 nM | < 0.1 µM | 100 to 1000 nM |  |
| CCN1c2ncc(CCOc3ccc(CC(=O)NS(C)(=O)=O)c4ccccc34)cc2C(=O)N(C)c2cccnc21 [Entry 1019] |  |  |  |  |  |  | IC50 (WT RT (HIV-1 RT); [8]): < 0.1 µM; IC50 ([3]; read-out: IC50 Y188L): > 1000 nM; IC50 [4, 9]: 0.1 to 1 µM; IC50 ([5]; read-out: IC50 V106A): > 1000 nM; EC50 [1, 10]: 100 to 1000 nM; EC50 [2, 11]: < 100 nM |
| CCN1c2ncc(CCOc3ccc(CC(C)C(=O)O)c4ccccc34)cc2C(=O)N(C)c2ccc(C)nc21 (stereo not shown) [Entry 1045] |  |  | < 0.1 µM | > 1000 nM | 0.1 to 1 µM | > 1000 nM |  |
| CCN1c2ncc(CCOc3ccc(CC(C)C(=O)O)c4ccccc34)cc2C(=O)Nc2c(C)ccnc21 (stereo not shown) [Entry 1046] |  |  | < 0.1 µM | > 1000 nM | > 1 µM | > 1000 nM |  |
| CCN1c2ncc(CCOc3ccc(CC(C)C(=O)O)c4ccccc34)cc2C(=O)Nc2c(C)cc(Cl)nc21 (stereo not shown) [Entry 1047] |  |  | < 0.1 µM | > 1000 nM | 0.1 to 1 µM | 100 to 1000 nM |  |
| CCN1c2ncc(CCOc3ccc(NS(C)(=O)=O)c4ccccc34)cc2C(=O)N(C)c2cccnc21 [Entry 2003] | < 100 nM |  | < 0.1 µM | > 1000 nM | 0.1 to 1 µM | > 1000 nM |  |
| CCN1c2ncc(CCOc3cccc4c(S(N)(=O)=O)cccc34)cc2C(=O)N(C)c2cccnc21 [Entry 2004] |  |  | < 0.1 µM | 100 to 1000 nM | < 0.1 µM | 100 to 1000 nM |  |
| CCN1c2ncc(CCOc3ccc(S(=O)(=O)NC(C)=O)c4ccccc34)cc2C(=O)N(C)c2cccnc21 [Entry 2005] |  |  |  |  |  |  | IC50 (WT RT (HIV-1 RT); [8]): < 0.1 µM; IC50 ([3]; read-out: IC50 Y188L): > 1000 nM; IC50 [4, 9]: 0.1 to 1 µM; IC50 ([5]; read-out: IC50 V106A): > 1000 nM |
| CCN1c2ncc(CCOc3ccc(NC(=O)CC(C)(C)C(=O)O)c4ccccc34)cc2C(=O)N(C)c2cccnc21 [Entry 2007] |  |  |  |  |  |  | IC50 (WT RT (HIV-1 RT); [8]): < 0.1 µM; IC50 ([3]; read-out: IC50 Y188L): > 1000 nM; IC50 [4, 9]: 0.1 to 1 µM; IC50 ([5]; read-out: IC50 V106A): > 1000 nM |
| CCN1c2ncc(CCOc3ccc(C(=O)O)c4ccccc34)cc2C(=O)N(C)c2cccnc21 [Entry 2010] |  |  | < 0.1 µM | > 1000 nM | 0.1 to 1 µM | > 1000 nM |  |
| CCN1c2ncc(CCOc3ccc(CCC(=O)O)c4ccccc34)cc2C(=O)N(C)c2cccnc21 [Entry 2011] |  |  |  |  |  |  | IC50 ([3]; read-out: IC50 Y188L): > 1000 nM; IC50 [4, 9]: 0.1 to 1 µM; IC50 ([5]; read-out: IC50 V106A): > 1000 nM; EC50 [1, 10]: 100 to 1000 nM; EC50 [2, 11]: < 100 nM |
| CCN1c2ncc(CCOc3ccc(CC(=O)NS(C)(=O)=O)c4ccccc34)cc2C(=O)N(C)c2cccnc21 [Entry 2012] |  |  |  |  |  |  | IC50 (WT RT (HIV-1 RT); [8]): < 0.1 µM; IC50 ([3]; read-out: IC50 Y188L): > 1000 nM; IC50 [4, 9]: > 1 µM; IC50 ([5]; read-out: IC50 V106A): > 1000 nM |
| CCN1c2ncc(CCOc3ccc(/C=C/C(=O)O)c4ccccc34)cc2C(=O)Nc2c(C)cc(F)nc21 [Entry 2015] |  |  |  |  |  | 100 to 1000 nM | IC50 (WT RT (HIV-1 RT); [12]): < 0.1 µM; IC50 ([3]; read-out: IC50 Y188L): > 1000 nM; IC50 [4, 13]: 0.1 to 1 µM |
| CCN1c2ncc(CCOc3ccc(/C=C/C(=O)O)c4ccccc34)cc2C(=O)N(C)c2ccc(C)nc21 [Entry 2017] |  |  |  | > 1000 nM |  | > 1000 nM | IC50 (WT RT (HIV-1 RT); [12]): < 0.1 µM; IC50 [4, 13]: 0.1 to 1 µM |
| CCN1c2ncc(CCOc3ccc4cc(C(=O)O)ccc4c3)cc2C(=O)N(C)c2cccnc21 [Entry 3001] |  |  | < 0.1 µM | > 1000 nM | 0.1 to 1 µM | 100 to 1000 nM |  |
| CCN1c2ncc(CCOc3ccc4cc(CC(=O)O)ccc4c3)cc2C(=O)N(C)c2cccnc21 [Entry 3004] |  |  | < 0.1 µM | > 1000 nM | > 1 µM | 100 to 1000 nM |  |
| CCN1c2ncc(CCOc3ccc(CC(=O)O)c4c3CCCC4)cc2C(=O)N(C)c2cccnc21 [Entry 5006] |  |  | < 0.1 µM | > 1000 nM | 0.1 to 1 µM | > 1000 nM |  |
| CCN1c2ncc(CCOc3cccc4c3CCCN4CC(=O)O)cc2C(=O)N(C)c2cccnc21 [Entry 6001] |  | 100 to 1000 nM | < 0.1 µM | > 1000 nM | > 1 µM | > 1000 nM |  |
| CCN1c2ncc(CCOc3ccc(C(=O)O)c4c3CCN(C(C)=O)C4)cc2C(=O)N(C)c2cccnc21 [Entry 7004] |  | 100 to 1000 nM | < 0.1 µM | > 1000 nM | 0.1 to 1 µM | > 1000 nM |  |
| CCN1c2ncc(CCOc3ccc(C(=O)O)c4c3CCN(S(C)(=O)=O)C4)cc2C(=O)N(C)c2cccnc21 [Entry 7005] |  | < 100 nM | < 0.1 µM | 100 to 1000 nM | < 0.1 µM | > 1000 nM |  |
